Measurements taken from patent US20060293259A1, “Compositions and methods of use of derivatized flavanols” (Mars, Incorporated, priority 2005, published 2006).

Columns and labels:
[1] = tested on: human umbilical vein endothelial cell (HUVEC); assay: MTT assay for toxic effects in HUVEC; format: cell-based; conditions: acute effect test, 100 nM, and 10 μM
Description: (§1) Test compounds were evaluated with respect to their potential to acutely (2 hours) and chronically (5 doses given in a 24 h period) modulate NO production. Positive controls (acetylcholine and/or histamine) and negative control L-NNMA (NO synthase inhibitor) were included in all experiments. Cell counts and total protein were used to assess intra-assay variation. Potential toxic effects of tested compounds were also monitored (MTT reduction was measured).
(§2) For the acute effect test, HUVECs were incubated with a single dose of 4′-O-ethyl (−) epicatechin, 4′-O-methyl (−) catechin, 3′-O-methyl (−) catechin which may be prepared as described in Ex. 1 using (−) catechin as a starting material, for 2 and 24 hours at concentrations of 100 nM, […], and 10 μM at 37 C and 5% CO2.

[2] = tested on: human umbilical vein endothelial cell (HUVEC); assay: NO production (NOx in culture medium) by HUVEC; format: cell-based; conditions: for effect on NO production, chronic effect test: 5 subsequent doses, each for 24 hours; for effect on NO production, acute effect test: single dose, 2 and 24 hours, 100 nM, and 10 μM
Description: Alkylated compounds, obtained as described in Example 1, were investigated for their effect on nitric oxide (NO) production and vasorelaxation using serum-free human umbilical vein endothelial cell (HUVEC) culture system in vitro. NO production by endothelial cells and relaxation of pre-constricted aortic rings are two main markers for evaluating cardiovascular effects of test compounds.
HUVECs obtained from a single donor were cultured in serum free, low protein (0.5 g/l), antibiotic-free cell culture medium supplemented with essential growth factors, nutrients and minerals. […] The cell culture medium was substituted with apo-transferrin, superoxide dismutase, and catalase to exclude secondary effects of test compounds involving their auto-oxidation mediated hydrogen peroxide formation.
as §1
NO production was evaluated by measuring the total amount of all major nitric oxide end products (NOx, including nitrate, nitrite, nitrosothiols) present in the cell culture medium. […] The amount of NO released from the culture medium was subsequently evaluated by measuring the chemiluminescence emitted during the stoichiometrical reaction between ozone and NO using NO Analyzer (Sievers Instruments, Inc. Boulder, Colo.).
The data presented herein were obtained from three experiments and were expressed as the concentration of NO present (in μmol/l) (as NOx) in the cell culture medium+/−standard deviation (SD). The data were corrected for the NOx intrinsically present in the fully supplemented cell culture medium and normalized with respect to the volume of media from which the sample was drawn. Data were analyzed using Student's t-test with a 95% level of confidence. P values equal to or less than […] were defined as statistically significant.
as §2
For the chronic effect test, HUVECs were incubated with 5 subsequent doses of test compounds, each for 24 hours. After each 24 hour treatment, culture medium was replaced.

[3] = tested on: platelet/monocyte conjugates; assay: Platelet/monocyte conjugate (P/M) formation in whole blood by flow cytometry; format: cell-based, human; conditions: collagen 0.125-0.5 μg/ml, 10 min, aspirin 100 μM; for inhibition of platelet/monocyte conjugation (P/M): first experiment (FIG. 1), test flavanols 0.3 mM; for inhibition of P/M: second experiment (FIG. 2), flavanols 0.3 mM
Description: (§3) Platelet aggregation was measured using a platelet counting technique, and formation of platelet/monocyte conjugates (P/M) and platelet/neutrophil conjugates (P/N) by flow cytometry. In later experiments the activation state of platelets associated with leukocytes (CD62P) was also measured and also the activation state of the leukocytes themselves (CD11b).
(§4) Flow cytometry was carried out using commercially available fluorescent labelled antibodies on a Facscan (Becton Dickinson, UK) equipped with a 5 W laser operating at 15 mW power and a wavelength of 488 nm or an LSRII flow cytometer (Becton Dickinson, UK) equipped with an additional red Trigon laser operating at a wavelength of 633 nm.
(§5) Blood was obtained from healthy volunteers, who denied taking any aspirin or non-steroidal anti-inflammatory drugs (NSAID) in the previous 10 days. This blood was dispensed into graduated polystyrene tubes that contained hirudin (final concentration 50 μg/ml) and a small volume of the flavanol under investigation or ethanol as control. The final concentration of ethanol in the blood was always 0.3%. In some experiments, aspirin (ASA) or saline as control was also included in the tube. The tubes were then capped and inverted three times to ensure adequate mixing then placed in the MSA at 37° C. for 30 min before the experiments were performed, during which time the blood was left undisturbed. A further sample of blood was taken into a commercially prepared vacutainer tube that contained K2EDTA as anticoagulant.
(§6) Platelet-leukocyte conjugate formation was measured in the same stirred samples used to measure platelet aggregation. Sub samples were taken 4 min or 10 min following the addition of agonist and transferred into the appropriate antibody or antibody mixture. These were then incubated in the dark at room temperature for not less than 20 min. Following red cell lysis and a washing procedure the cell suspensions were applied to either the FACScan or the LSRII flow cytometer. Leukocytes were identified by logical gating from dot plots of forward scatter (cell size) and side scatter (cell granularity) profiles acquired with linear amplification. Monocytes were identified by their forward scatter-side scatter profile and CD14 (PE) positivity, while neutrophils were identified in the same way but were negative for CD14 expression. The “pan” leukocyte marker, CD45 (PerCP) was also used to identify the leukocyte population. Fluorescence parameters were acquired with logarithmic amplification. Platelet monocyte (P/M) and platelet neutrophil (P/N) conjugates were quantified as median CD42a (FITC) fluorescence of the monocyte (P/M mf) or neutrophil population (P/N mf). Leukocyte activation was measured by CD11b (AlexaFluor647) expression (CD11b-M for monocytes and CD11b-N for neutrophils). Platelet activation (P-selectin expression) was measured by CD62P (PE) positivity of the platelets associated with leukocytes as (CD62P-M on P/M and CD62P-N on P/N).
The FACScan was used to measure the fluorescent probes in experiments where three colors were used together, but the LSRII was needed in order to study four colors. The LSRII is a more sensitive machine and produces higher fluorescence values (mf) than the FACScan. […]
Blood was obtained from three different volunteers and the platelet aggregation and platelet/leukocyte conjugate formation was measured in response to collagen (0, 0.125, 0.25 and 0.5 μg/ml). […]

platelets in whole blood = assay: Collagen-induced platelet aggregation in whole blood (platelet counting); format: cell-based, human; conditions: aspirin 100 μM; for inhibition of collagen-induced platelet aggregation: first experiment (FIG. 1), collagen 0.125, 0.25, 0.5 μg/ml, 4 and 10 min, test flavanols 0.3 mM, mean of n=9; for inhibition of collagen induced aggregation: second experiment (FIG. 2), collagen 0.125-0.5 μg/ml, 4 min, flavanols 0.3 mM, n=9
Description: as §3
Blood samples were studied using the Multi-Sample Agitator (MSA) produced by the Medical Engineering Unit (University of Nottingham). The MSA is used to maintain blood samples at 37° C. and to agitate small samples of blood at a stir speed of 1,000 rpm as required.
as §5
Following a 30 min pre-incubation period, aliquots of blood (480 μl) were dispensed into small polystyrene tubes each containing a stir bar and stirred for 2 min in the MSA. After 2 min a solution (20 μl) of agonist or vehicle control were added to the tubes. These were then stirred in the MSA for up to 10 min at which time the platelet aggregates were fixed by mixing a small sub sample with fixative solution in a 1:2 ratio (v/v). The platelet count in the fixed samples was determined using the UltraFlo-100 Whole Blood Platelet Counter. Platelet aggregation was calculated as the percentage loss of single platelets with reference to the platelet count of the EDTA sample.
Blood was obtained from three different volunteers and the platelet aggregation and platelet/leukocyte conjugate formation was measured in response to collagen (0, 0.125, 0.25 and 0.5 μg/ml). In this experiment the highest collagen concentration used previously (1 μg/ml) was replaced with a lower concentration of collagen (0.125 μg/ml) to optimise the inhibition brought about by the different flavanols. In these experiments (+) catechin (Sigma) was used at 1 mM, aspirin (100 μM) and the test flavanols at 0.3 mM with the exception of EP−(0.1 mM) and 4 mCAT (0.05 mM). Aggregation was measured at 4 and 10 min following agonist addition and platelet/leukocyte conjugate formation only at 10 min.
The absolute response of the blood from the different volunteers to collagen varied. This meant that the relative inhibitory effects of a flavanol was dependent on the volunteer's responsiveness to the particular collagen concentration used. For this reason it was decided that an appropriate means of analysing the results, for comparative purposes, would be to calculate the mean values for each flavanol irrespective of the collagen concentration used. (Because, for each of the three blood samples three concentrations of collagen were used, the results are each the means (±sem) of nine individual values).
Blood was obtained from three different volunteers and the platelet aggregation (4 min) and platelet/leukocyte conjugate formation (10 min) was measured in response to collagen (0, 0.125, 0.25 and 0.5 μg/ml). At the same time the activation of platelets and leukocytes in the conjugates were measured by incubation with CD62P and CD11b antibodies. In these experiments aspirin was used at a concentration of 100 μM and derivatized flavanols and procyanidins at 0.3 mM with the exception of EP-(0.1 mM) and 4mCAT (0.05 mM). […]

[4] = tested on: CD62P on platelets associated with monocytes and neutrophils; assay: Platelet activation (CD62P, P-selectin) on platelets associated with leukocytes; format: cell-based, human; conditions: FIG. 2; collagen 0.125-0.5 μg/ml; 10 min; flavanols 0.3 mM, aspirin 100 μM
Description: as §3, §4
Blood was obtained from healthy volunteers, who denied taking any aspirin or non-steroidal anti-inflammatory drugs (NSAID) in the previous 10 days. This blood was dispensed into graduated polystyrene tubes that contained hirudin (final concentration 50 μg/ml) and a small volume of the flavanol under investigation or ethanol as control. […]
(§7) Platelet-leukocyte conjugate formation was measured in the same stirred samples used to measure platelet aggregation. […] Fluorescence parameters were acquired with logarithmic amplification. Platelet monocyte (P/M) and platelet neutrophil (P/N) conjugates were quantified as median CD42a (FITC) fluorescence of the monocyte (P/M mf) or neutrophil population (P/N mf). Leukocyte activation was measured by CD11b (AlexaFluor647) expression (CD11b-M for monocytes and CD11b-N for neutrophils). Platelet activation (P-selectin expression) was measured by CD62P (PE) positivity of the platelets associated with leukocytes as (CD62P-M on P/M and CD62P-N on P/N).
From this point on it was decided to include measures of the extent of the activation of both platelets and leukocytes in the conjugates that formed following addition of collagen to blood. P-selectin (CD62P) was measured on the platelets associated with leukocytes in the conjugates that formed. Leukocyte activation was measured as the amount of CD11b that was expressed. […]

[5] = tested on: platelet/neutrophil conjugates; assay: Platelet/neutrophil conjugate (P/N) formation in whole blood by flow cytometry; format: cell-based, human; conditions: collagen 0.125-0.5 μg/ml, 10 min, aspirin 100 μM; for inhibition of platelet/neutrophil conjugate formation (P/N): first experiment (FIG. 1), test flavanols 0.3 mM; for inhibition of P/N: second experiment (FIG. 2), flavanols 0.3 mM
Description: as §3, §4, §5, §6
The FACScan was used to measure the fluorescent probes in experiments where three colors were used together, but the LSRII was needed in order to study four colors. The LSRII is a more sensitive machine and produces higher fluorescence values (mf) than the FACScan. Results obtained on the FACScan cannot be directly compared with the results obtained on the LSRII.
Blood was obtained from three different volunteers and the platelet aggregation and platelet/leukocyte conjugate formation was measured in response to collagen (0, 0.125, 0.25 and 0.5 μg/ml). In this experiment the highest collagen concentration used previously (1 μg/ml) was replaced with a lower concentration of collagen (0.125 μg/ml) to optimise the inhibition brought about by the different flavanols. In these experiments (+) catechin (Sigma) was used at 1 mM, aspirin (100 μM) and the test flavanols at 0.3 mM with the exception of EP−(0.1 mM) and 4 mCAT (0.05 mM). […]

[6] = tested on: CD11b on monocytes and neutrophils; assay: Leukocyte activation (CD11b expression) on monocytes and neutrophils; format: cell-based, human; conditions: FIG. 2; collagen 0.125-0.5 μg/ml; 10 min; flavanols 0.3 mM, aspirin 100 μM
Description: as §3
Flow cytometry was carried out using commercially available fluorescent labelled antibodies on a Facscan (Becton Dickinson, UK) equipped with a 5 W laser operating at 15 mW power and a wavelength of 488 nm or an LSRII flow cytometer (Becton Dickinson, UK) equipped with an additional red Trigon laser operating at a wavelength of 633 nm. […]
as §7, with “P/N). […]” for “P/N).”

3′-O-methyl (−) catechin
toxic effects (MTT assay) [1]: did not have toxic effects | effect on NO production, chronic effect test [2]: no statistically significant effect | effect on NO production, acute effect test [2]: no statistically significant effect

COc1cc(C2Oc3cc(O)cc(O)c3CC2O)ccc1O (stereo not shown) [3mCAT, 3′OMe catechin]
inhibition of platelet/monocyte conjugation (P/M) [3]: significant effect | inhibition of P/M [3]: significant effect | inhibition of collagen-induced platelet aggregation (platelets in whole blood): significant effect | inhibition of collagen induced aggregation (platelets in whole blood): among the most effective | inhibition of platelet activation (CD62P) on monocytes and neutrophils [4]: best inhibited | inhibition of platelet/neutrophil conjugate formation (P/N) [5]: among the most effective | inhibition of P/N [5]: most effective

COc1ccc(C2Oc3cc(O)cc(O)c3CC2O)cc1O (stereo not shown) [4mEPCAT, 4′OMe epicatechin]
inhibition of platelet/monocyte conjugation (P/M) [3]: significant effect | inhibition of P/M [3]: significant effect | inhibition of collagen-induced platelet aggregation (platelets in whole blood): significant effect | inhibition of collagen induced aggregation (platelets in whole blood): among the most effective | inhibition of leukocyte activation (CD11b on monocytes and neutrophils) [6]: among the most effective | inhibition of platelet activation (CD62P) on monocytes and neutrophils [4]: best inhibited | inhibition of platelet/neutrophil conjugate formation (P/N) [5]: among the most effective | inhibition of P/N [5]: most effective

CCOc1ccc([C@H]2Oc3cc(O)cc(O)c3C[C@H]2O)cc1O [4′-O-ethyl (−) epicatechin]
toxic effects (MTT assay) [1]: did not have toxic effects | effect on NO production, chronic effect test ([2]; 10 μM concentration, p=0.004): statistically significant increase | effect on NO production, acute effect test [2]: no statistically significant effect

COc1ccc([C@H]2Oc3cc(O)cc(O)c3C[C@@H]2O)cc1O [4′-O-methyl (−) catechin]
toxic effects (MTT assay) [1]: did not have toxic effects | effect on NO production, chronic effect test [2]: no statistically significant effect | effect on NO production, acute effect test [2]: no statistically significant effect

CC(=O)Oc1ccccc1C(=O)O [ASA, acetyl salicylic acid, reference compound]
inhibition of platelet/monocyte conjugation (P/M) [3]: effectively inhibited | inhibition of collagen-induced platelet aggregation (platelets in whole blood): effectively inhibited | inhibition of collagen induced aggregation (platelets in whole blood): expected effects | inhibition of leukocyte activation (CD11b on monocytes and neutrophils) [6]: no effect | inhibition of platelet activation (CD62P) on monocytes and neutrophils [4]: expected effects | inhibition of platelet/neutrophil conjugate formation (P/N) [5]: effectively inhibited | inhibition of P/N [5]: expected effects
